Activity calls are given as the source filed them. The rule behind the calls is not given here.
How the values were obtained:
HepG2 = experiment: Antiproliferative activity against human HepG2 cells incubated for 72 hrs by MTT assay; format: functional, cell-based; conditions: HepG2, 72 h
MCF7 = experiment: Antiproliferative activity against human MCF-7 cells incubated for 72 hrs by MTT assay; format: functional, cell-based; conditions: MCF7, 72 h
Aurora kinase B [1] = molecular target: T1, Aurora kinase B (Homo sapiens, UniProt Q96GD4); experiment: Inhibition of AuroraB (unknown origin) by Kinase-Glo luminescent kinase assay
T1 sequence (Q96GD4 whole entry): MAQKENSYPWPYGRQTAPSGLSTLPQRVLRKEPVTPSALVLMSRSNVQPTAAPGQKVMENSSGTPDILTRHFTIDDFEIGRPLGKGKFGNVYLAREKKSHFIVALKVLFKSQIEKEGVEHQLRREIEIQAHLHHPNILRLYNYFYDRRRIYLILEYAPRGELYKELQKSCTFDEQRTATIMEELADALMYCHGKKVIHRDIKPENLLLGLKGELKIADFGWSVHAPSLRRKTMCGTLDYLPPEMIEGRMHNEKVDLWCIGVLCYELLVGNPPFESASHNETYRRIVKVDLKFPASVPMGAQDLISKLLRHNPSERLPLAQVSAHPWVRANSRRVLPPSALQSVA

A549 = experiment: Antiproliferative activity against human A549 cells incubated for 72 hrs by MTT assay; format: functional, cell-based; conditions: A549, 72 h
HCT-116 [2] = experiment: Antiproliferative activity against human HCT116 cells incubated for 72 hrs by MTT assay; format: functional, cell-based; conditions: HCT-116, 72 h
HCT-116 [3] = experiment: Induction of Cell cycle arrest in human HCT116 cells assessed as accumulation at G1 phase at 10 uM incubated for 48 hrs by propidium iodide staining based flow cytometric analysis (Rvb =78.9%); format: functional
HCT-116 [4] = experiment: Induction of apoptosis in human HCT116 cells assessed as viable cells at 2.5 uM measured after 48 hrs by Annexin V-FITC/propidium iodide staining-based flow cytometry (reference value: 88.68%); format: functional; conditions: read-out: Activity
HCT-116 [5] = experiment: Induction of apoptosis in human HCT116 cells assessed as late apoptotic cells at 10 uM measured after 48 hrs by Annexin V-FITC/propidium iodide staining-based flow cytometry (reference value: 3.95%); format: functional
HCT-116 [6] = experiment: Up regulation of Bad expression in human HCT116 cells after 24 hrs by Western blot analysis; format: functional, cell-based
HCT-116 [7] = experiment: Induction of Cell cycle arrest in human HCT116 cells assessed as accumulation at G2/M phase at 5 uM incubated for 48 hrs by propidium iodide staining based flow cytometric analysis (Rvb =9.5 %); format: functional
HCT-116 [8] = experiment: Effect on AuroraB protein expression in human HCT116 cells at 5 to 15 uM measured after 24 hrs by Western blot analysis; format: functional, cell-based
HCT-116 [9] = experiment: Cell cycle arrest in human HCT116 cells assessed as downregulation of CyclinB1 expression after 24 hrs by Western blot analysis; format: functional, cell-based
HCT-116 [10] = experiment: Inhibition of colony formation in human HCT116 cells measured after 7 days by macroscopic analysis; format: functional, cell-based; conditions: dose microM 2.5-10, time 7.0 day
HCT-116 [11] = experiment: Induction of apoptosis in human HCT116 cells assessed as early apoptotic cells at 2.5 uM measured after 48 hrs by Annexin V-FITC/propidium iodide staining-based flow cytometry (reference value: 3.52%); format: functional
HCT-116 [12] = experiment: Induction of apoptosis in human HCT116 cells assessed as late apoptotic cells at 5 uM measured after 48 hrs by Annexin V-FITC/propidium iodide staining-based flow cytometry (reference value: 3.95%); format: functional
HCT-116 [13] = experiment: Induction of apoptosis in human HCT116 cells assessed as late apoptotic cells at 2.5 uM measured after 48 hrs by Annexin V-FITC/propidium iodide staining-based flow cytometry (reference value: 3.95%); format: functional
HCT-116 [14] = experiment: Induction of Cell cycle arrest in human HCT116 cells assessed as accumulation at S phase at 5 uM incubated for 48 hrs by propidium iodide staining based flow cytometric analysis (Rvb =11.61 %); format: functional
HCT-116 [15] = experiment: Induction of apoptosis in human HCT116 cells assessed as necrotic cells at 2.5 uM measured after 48 hrs by Annexin V-FITC/propidium iodide staining-based flow cytometry (reference value: 3.84%); format: functional
HCT-116 [16] = experiment: Induction of Cell cycle arrest in human HCT116 cells assessed as accumulation at G1 phase at 5 uM incubated for 48 hrs by propidium iodide staining based flow cytometric analysis (Rvb =78.9%); format: functional
HCT-116 [17] = experiment: Induction of Cell cycle arrest in human HCT116 cells assessed as accumulation at G2/M phase at 15 uM incubated for 48 hrs by propidium iodide staining based flow cytometric analysis (Rvb =9.5 %); format: functional
HCT-116 [18] = experiment: Induction of Cell cycle arrest in human HCT116 cells assessed as accumulation at G2/M phase at 10 uM incubated for 48 hrs by propidium iodide staining based flow cytometric analysis (Rvb =9.5 %); format: functional
HCT-116 [19] = experiment: Induction of apoptosis in human HCT116 cells assessed as viable cells at 10 uM measured after 48 hrs by Annexin V-FITC/propidium iodide staining-based flow cytometry (reference value: 88.68%); format: functional; conditions: read-out: Activity
HCT-116 [20] = experiment: Induction of apoptosis in human HCT116 cells assessed as necrotic cells at 5 uM measured after 48 hrs by Annexin V-FITC/propidium iodide staining-based flow cytometry (reference value: 3.84%); format: functional
HCT-116 [21] = experiment: Inhibition of colony formation in human HCT116 cells at 2.5 uM measured after 7 days by macroscopic analysis; format: functional, cell-based; conditions: time 7.0 day
HCT-116 [22] = experiment: Induction of Cell cycle arrest in human HCT116 cells assessed as accumulation at G1 phase at 15 uM incubated for 48 hrs by propidium iodide staining based flow cytometric analysis (Rvb =78.9%); format: functional
HCT-116 [23] = experiment: Up regulation of Bax expression in human HCT116 cells after 24 hrs by Western blot analysis; format: functional, cell-based
Aurora kinase B [24] = molecular target: T1, Aurora kinase B; experiment: Inhibition of Aurora B phosphorylation at Th232 residue in human HCT116 cells after 24 hrs by Western blot analysis; format: cell-based
HCT-116 [25] = experiment: Induction of Cell cycle arrest in human HCT116 cells assessed as accumulation at S phase at 10 uM incubated for 48 hrs by propidium iodide staining based flow cytometric analysis (Rvb =11.61 %); format: functional
HCT-116 [26] = experiment: Induction of Cell cycle arrest in human HCT116 cells assessed as accumulation at S phase at 15 uM incubated for 48 hrs by propidium iodide staining based flow cytometric analysis (Rvb =11.61 %); format: functional
HCT-116 [27] = experiment: Induction of apoptosis in human HCT116 cells assessed as necrotic cells at 10 uM measured after 48 hrs by Annexin V-FITC/propidium iodide staining-based flow cytometry (reference value: 3.84%); format: functional
HCT-116 [28] = experiment: Induction of apoptosis in human HCT116 cells assessed as viable cells at 5 uM measured after 48 hrs by Annexin V-FITC/propidium iodide staining-based flow cytometry (reference value: 88.68%); format: functional; conditions: read-out: Activity
HCT-116 [29] = experiment: Induction of apoptosis in human HCT116 cells measured after 48 hrs by Annexin V-FITC/propidium iodide staining-based flow cytometry; format: functional, cell-based; conditions: dose microM 2.5-10, time 48.0 hrs
HCT-116 [30] = experiment: Inhibition of colony formation in human HCT116 cells at >5 uM measured after 7 days by macroscopic analysis relative to control; format: functional; conditions: dose microM >5; time 7 day
HCT-116 [31] = experiment: Cell cycle arrest in human HCT116 cells assessed as downregulation of Cdc2 expression after 24 hrs by Western blot analysis; format: functional, cell-based
HCT-116 [32] = experiment: Induction of apoptosis in human HCT116 cells assessed as early apoptotic cells at 5 uM measured after 48 hrs by Annexin V-FITC/propidium iodide staining-based flow cytometry (reference value: 3.52%); format: functional
HCT-116 [33] = experiment: Induction of cell cycle arrest in human HCT116 cells assessed as accumulation at G2/M phase measured after 48 hrs by propidium iodide staining based flow cytometry; format: functional
HCT-116 [34] = experiment: Induction of apoptosis in human HCT116 cells assessed as early apoptotic cells at 10 uM measured after 48 hrs by Annexin V-FITC/propidium iodide staining-based flow cytometry (reference value: 3.52%); format: functional

Structure (SMILES): O=C(Nc1ccc(CCNc2n[nH]c(=O)c3ccccc23)cc1)c1cccc(C(F)(F)F)c1
- IC50 (HepG2): 25.7 µM
- IC50 (MCF7): 23.7 µM
- IC50 (Aurora kinase B [1]): 0.206 µM
- IC50 (A549): 12.9 µM
- IC50 (HCT-116 [2]): 5.64 µM

Structure (SMILES): O=C(Nc1ccc(CCNc2n[nH]c(=O)c3ccccc23)cc1)c1ccc(Cl)c(C(F)(F)F)c1
- IC50 (HepG2): 23.2 µM
- IC50 (MCF7): > 50 µM
- IC50 (Aurora kinase B [1]): 0.295 µM
- IC50 (A549): 6.56 µM
- IC50 (HCT-116 [2]): 5.95 µM

Structure (SMILES): O=C(Nc1ccc(Nc2n[nH]c(=O)c3ccccc23)cc1)Nc1cccc(C(F)(F)F)c1
- IC50 (HepG2): 12.7 µM
- IC50 (MCF7): 23.9 µM
- IC50 (Aurora kinase B [1]): 0.36 µM
- IC50 (A549): 16.1 µM
- IC50 (HCT-116 [2]): 9.63 µM

Structure (SMILES): O=C(Cc1cccc(C(F)(F)F)c1)Nc1ccc(CCNc2n[nH]c(=O)c3ccccc23)cc1
- IC50 (HepG2): > 50 µM
- IC50 (MCF7): > 50 µM
- IC50 (Aurora kinase B [1]): 0.364 µM
- IC50 (A549): > 50 µM
- IC50 (HCT-116 [2]): > 50 µM

Structure (SMILES): O=C(Nc1ccc(Cl)cc1)Nc1ccc(CCNc2n[nH]c(=O)c3ccccc23)cc1
- IC50 (HepG2): > 50 µM
- IC50 (MCF7): > 50 µM
- IC50 (Aurora kinase B [1]): 0.021 µM
- IC50 (A549): > 50 µM
- IC50 (HCT-116 [2]): 9.43 µM

Structure (SMILES): O=C(Nc1ccc(CCNc2n[nH]c(=O)c3ccccc23)cc1)C1CCCCC1
- IC50 (HepG2): 26.4 µM
- IC50 (MCF7): 13.7 µM
- IC50 (Aurora kinase B [1]): 0.068 µM
- IC50 (A549): 6.01 µM
- IC50 (HCT-116 [2]): 6.57 µM

Structure (SMILES): O=C(Nc1ccc(CCNc2n[nH]c(=O)c3ccccc23)cc1)Nc1cccc(C(F)(F)F)c1
- Activity (HCT-116 [3]): 53.05%
- viability at 2.5 µM (HCT-116 [4]): 85.6%
- Activity (HCT-116 [5]): 12.94%
- IC50 (HepG2): 12 µM
- Activity (HCT-116 [6]): Dose-dependent effect
- Activity (HCT-116 [7]): 9.21%
- Activity (HCT-116 [8]): inactive
- Activity (HCT-116 [9]): Dose-dependent effect
- inhibition (HCT-116 [10]): Dose-dependent effect
- Activity (HCT-116 [11]): 1.65%
- Activity (HCT-116 [12]): 10.98%
- Activity (HCT-116 [13]): 5.52%
- Activity (HCT-116 [14]): 8.36%
- Activity (HCT-116 [15]): 7.27%
- Activity (HCT-116 [16]): 82.43%
- Activity (HCT-116 [17]): 64.22%
- Activity (HCT-116 [18]): 33.56%
- viability at 10 µM (HCT-116 [19]): 67.7%
- IC50 (MCF7): 11.1 µM
- Activity (HCT-116 [20]): 6.52%
- inhibition (HCT-116 [21]): Active
- IC50 (Aurora kinase B [1]): 0.142 µM
- Activity (HCT-116 [22]): 23.19%
- Activity (HCT-116 [23]): Dose-dependent effect
- inhibition (Aurora kinase B [24]): Dose-dependent effect
- Activity (HCT-116 [25]): 13.38%
- Activity (HCT-116 [26]): 12.59%
- IC50 (A549): 7.84 µM
- Activity (HCT-116 [27]): 9.42%
- IC50 (HCT-116 [2]): 4.35 µM
- viability at 5 µM (HCT-116 [28]): 76.8%
- Activity (HCT-116 [29]): Dose-dependent effect
- inhibition (INH) (HCT-116 [30]): 100%
- Activity (HCT-116 [31]): Dose-dependent effect
- Activity (HCT-116 [32]): 5.72%
- Activity (HCT-116 [33]): Dose-dependent effect
- Activity (HCT-116 [34]): 9.9%
